Results taken from patent publication US5208243A, “5-isoquinolinesulfonamides” (Adir et Compagnie, priority 1991, dated 1993).
Where a name gives a salt, the structure may show the parent alone. Read-outs that look alike come from different tables or passages of the source. Values belong to the molecule of their own block, whether it stands above or below them.

Experiments:
rabbit aorta [1] = assay: Contraction of rabbit aorta induced by phorbol ester in a medium without calcium; set-up: species or system New Zealand rabbit; conditions: Oryctolagus cuniculus, 10^-5 M, medium lacking calcium
Description: (§1) Studies are carried out on rings, 3 mm in length, […] The vascular rings are immersed in a normal physiological solution or in a physiological solution lacking calcium (+0.2 mM of the chelating agent EGTA), which is thermostatically regulated at 37° C. and aerated with a 95% O2 +5% CO2 mixture. The rings are linked to a STATHAM tension sensor (UC2-GOULD). The optimal tension for each vessel is applied and a stabilization period of 90 min is observed for the preparations. b) Antivasoconstrictive activity of the compounds of the invention in a medium without calcium.

Rabbit iliac artery = assay: Contraction of rabbit iliac artery induced by caffeine in a medium without calcium; set-up: species or system New Zealand rabbit; conditions: Oryctolagus cuniculus, 10^-5 M, medium lacking calcium
Description: as §1

rabbit aorta [2] = assay: Contraction of rabbit aorta induced by phorbol ester in a normal physiological medium; set-up: species or system New Zealand rabbit; conditions: Oryctolagus cuniculus, TPA 10^-5 M, read-out: IC50, phorbol ester stimulus
Description: as §1, with “a)” for “b)”, “physiological medium.” for “medium without calcium.”

isolated heart = assay: Isolated heart subjected to an ischemia-reperfusion sequence; set-up: species or system WISTAR rat; conditions: Rattus norvegicus, concentration of 810^-7 M (so in the source)
Description: b) Protective effect of the compounds of the invention on an isolated heart subjected to an ischemia-reperfusion sequence.
The heart is removed from WISTAR rats (325-375 g). The heart is rapidly perfused according to the technique of LANGENDORFF at a constant pressure of 101.310^2 Pa and electrically stimulated at 5 Hz.
The heart is subjected to a 30 min ischemia (produced by complete stoppage of the perfusion) followed by a 60 min reperfusion. The test compounds are incubated for 15 min before the ischemia.
Isovolumetric contractions are recorded by means of a polyethylene ballonet linked to a pressure sensor (P23-GOULD) introduced into the left ventricle and inflated so as to obtain a diastolic pressure of between 6.710^2 and 13.310^2 Pa.

guinea pig left auricle [3] = assay: Ouabain intoxication of guinea pig left auricle; conditions: compound 10^-6 M
rabbit aorta [4] = assay: Contraction of rabbit aorta induced by noradrenaline in a normal physiological medium; set-up: species or system New Zealand rabbit; conditions: Oryctolagus cuniculus, noradrenaline 10^-6 M, read-out: IC50, noradrenaline stimulus
Description: as §1, with “a)” for “b)”, “physiological medium.” for “medium without calcium.”

rabbit aorta [5] = assay: Contraction of rabbit aorta induced by endothelin in a normal physiological medium; set-up: species or system New Zealand rabbit; conditions: Oryctolagus cuniculus, read-out: IC50, endothelin stimulus
Description: as §1, with “a)” for “b)”, “physiological medium.” for “medium without calcium.”

rabbit aorta [6] = assay: Vascular contraction of rabbit aorta induced by PDGF; set-up: species or system New Zealand rabbit; conditions: Oryctolagus cuniculus, 10^-5 M, preincubated 15 minutes
Description: as §1, with “a)” for “b)”, “physiological medium.” for “medium without calcium.”

rabbit aorta [7] = assay: Contraction of rabbit aorta induced by angiotensin II in a medium without calcium; set-up: species or system New Zealand rabbit; conditions: Oryctolagus cuniculus, 10^-5 M, medium lacking calcium
Description: as §1

pig coronary artery = assay: Vascular contraction of pig coronary artery induced by acetylcholine; conditions: Sus scrofa, 10^-5 M, preincubated 15 minutes
Description: Studies are carried out on rings, 3 mm in length, - or of coronary arteries from pigs anesthetized with nesdonal (8 mg/kg intravenously). The vascular rings are immersed in a normal physiological solution or in a physiological solution lacking calcium (+0.2 mM of the chelating agent EGTA), which is thermostatically regulated at 37° C. and aerated with a 95% O2 +5% CO2 mixture. The rings are linked to a STATHAM tension sensor (UC2-GOULD). The optimal tension for each vessel is applied and a stabilization period of 90 min is observed for the preparations. a) Antivasoconstrictive activity of the compounds of the invention in a physiological medium.

[8] = system: smooth muscle cells of the aorta; assay: Proliferation rate after endothelial denudation of the aorta (3H-thymidine incorporation); assay type: in vivo, WISTAR rat; conditions: 10 mg/kg orally, daily
Description: D/ Effect of the compounds of the invention on the proliferation rate after endothelial denudation. […] After pretreatment for 6 days (J6), denudation of the aortic endothelium of the animals is performed according to the following method: After anesthetizing the animal with methohexital (Brietal, 60 mg/kg intraperitoneally), an embolectomy probe (Fogarty 2F) is introduced into the aorta through the left carotid. Aortic deendothelialization is achieved by three successive passages of the probe. Three days after the endothelial denudation (J9), the rats are sacrificed and the aorta is removed, incubated in a physiological solution for 1 hour at 37° C., and then transferred into a ^3 H-thymidine-enriched Krebs- Henseleit solution (specific activity: […]) for 1 hour at 37° C. This is followed by a one-hour post-incubation in a Krebs-Henseleit solution lacking ^3 H-thymidine. After washing in a Tris-EDTA buffer, the proliferation rate is calculated from the incorporation of 3H-thymidine. [drawing 17]

rabbit aorta [9] = assay: Contraction of rabbit aorta induced by endothelin in a medium without calcium; set-up: species or system New Zealand rabbit; conditions: Oryctolagus cuniculus, 10^-5 M, medium lacking calcium
Description: as §1

guinea pig left auricle [10] = assay: Veratridine intoxication of guinea pig left auricle; conditions: compound 10^-5 M
Description: a) Effect of the compounds of the invention on the intoxication of guinea pig left auricle.
The left auricles are removed from guinea pigs (350-450 g) anesthetized with sodium pentobarbital (30 mg/kg). The auricles are attached to a STATHAM tension sensor (UC2-GOULD) and the initial tension applied is 0.5 grams.
The auricles are electrically stimulated at 1 Hz by means of platinum electrodes. The intoxications are produced either by the addition of ouabain (10^-6 M) or by the addition of veratridine (10^-5 M). The test compounds are added 15 minutes before adding the toxic agent.

rabbit mesenteric artery = assay: Contraction of rabbit mesenteric artery induced by electrical stimulation; set-up: species or system New Zealand rabbit; conditions: Oryctolagus cuniculus, normal physiological medium
Description: as §1, with “a)” for “b)”, “physiological medium.” for “medium without calcium.”

rat aortas = assay: Contraction of rat aortas induced by potassium depolarization (hyperpotassium medium); set-up: species or system WISTAR rat; conditions: read-out: IC50 (concentration inhibiting by 50% the contraction of rat aortas induced by potassium depolarization)
Excerpt: The rings are linked to a STATHAM tension sensor (UC2-GOULD).

rabbit aortas = assay: Contraction of rabbit aortas induced by noradrenaline in a medium without calcium; set-up: species or system New Zealand rabbit; conditions: Oryctolagus cuniculus, 0.5 h, rabbit aorta, incubated 30 minutes; for inhibition at 1 µM: compound 10^-6 M; for inhibition at 0.1 µM: compound 10^-7 M
Description: as §1

Structure (SMILES): CN(C1CCN(CCCCOc2ccc(F)cc2)CC1)S(=O)(=O)c1cccc2cnccc12 [Example 1, N-Methyl-N-{1-[4-(pfluorophenoxy)butyl]-4-piperidyl}-5-isoquinolinesulfonamide fumarate]
inhibition at 10 µM (rabbit aorta [1]): 66%
inhibition at 10 µM (Rabbit iliac artery): 30%
IC50 (rabbit aorta [2]): 300 µM
inhibition at 0.8 µM (isolated heart; 0.5 h, read-out: reduction of the contracture developed after 30 minutes of ischemia, relative to control): 47%
activation at 0.8 µM (isolated heart; 1 h, end of 60 minutes of reperfusion, read-out: improvement of the functional recuperation of the hearts relative to control): 55%
% contraction (guinea pig left auricle [3]; 10 min): 192 ± 29%
Contracture (%) (guinea pig left auricle [3]; 15 min): 0%
% contraction (guinea pig left auricle [3]; 30 min): 187.5 ± 30%
Contracture (%) (guinea pig left auricle [3]; 30 min): 1.9 ± 1.9%
% contraction (guinea pig left auricle [3]; 60 min): 148.3 ± 33%
Contracture (%) (guinea pig left auricle [3]; 60 min): 18 ± 7%
IC50 (rabbit aorta [4]): 1.4 µM
IC50 (rabbit aorta [5]): 8.1 µM
inhibition at 10 µM (rabbit aorta [6]): 20%
inhibition at 10 µM (rabbit aorta [7]): 40%
inhibition at 10 µM (pig coronary artery): 61%
reduction of the proliferation of smooth muscle cells [8]: 40%
inhibition at 10 µM (rabbit aorta [9]): 42%
% contraction (guinea pig left auricle [10]; 5 min): 158 ± 11%
% contraction (guinea pig left auricle [10]; 15 min): 60.5 ± 13%
Contracture (%) (guinea pig left auricle [10]; 15 min): 23.5 ± 6.2%
Contracture (%) (guinea pig left auricle [10]; 30 min): 52.2 ± 4.7%
% contraction (guinea pig left auricle [10]; 60 min): 20.5 ± 4.6%
Contracture (%) (guinea pig left auricle [10]; 60 min): 60.7 ± 4.4%
IC50 (rabbit mesenteric artery): 0.4 µM
IC50 (rat aortas): 0.85 µM
inhibition at 1 µM (rabbit aortas): 61%

IC50 (rat aortas; 80 mM KCl, 37 mM NaCl): 1.3 µM
Structure (SMILES): CN(C1CCN(CCCCOc2ccc([N+](=O)[O-])cc2)CC1)S(=O)(=O)c1cccc2cnccc12 [Example 2, N-Methyl-N-{1-[4-(p-nitrophenoxy)butyl]-4-piperidyl}-5-isoquinolinesulfonamide fumarate]
inhibition at 1 µM (rabbit aortas): 12%

IC50 (rat aortas; 80 mM KCl, 37 mM NaCl): 1.7 µM
Structure (SMILES): CN(C1CCN(CCCCOc2ccccc2)CC1)S(=O)(=O)c1cccc2cnccc12 [Example 3, N-Methyl-N-{1-[4-(phenoxy)butyl]4-piperidyl}-5 isoquinolinesulfonamide fumarate]
inhibition at 1 µM (rabbit aortas): 47%

IC50 (rat aortas; 80 mM KCl, 37 mM NaCl): 1.1 µM
Structure (SMILES): CN(C1CCN(CCCCOc2ccc(Cl)cc2)CC1)S(=O)(=O)c1cccc2cnccc12 [Example 6, N-Methyl-N-{1-[4-(p-chlorophenoxy)butyl4-piperidyl}-5-isoquinolinesulfonamide hydrochloride]
inhibition at 1 µM (rabbit aortas): 18%

IC50 (rat aortas; 80 mM KCl, 37 mM NaCl): 1.9 µM
Structure (SMILES): COc1ccc(OCCCCN2CCC(N(C)S(=O)(=O)c3cccc4cnccc34)CC2)cc1 [Example 7, N-Methyl-N-{1-[4-(p-methoxyphenoxy)butyl]-4-piperidyl}-5-isoquinolinesulfonamide hydrochloride]
inhibition at 1 µM (rabbit aortas): 13%

IC50 (rat aortas; 80 mM KCl, 37 mM NaCl): 0.95 µM
Structure (SMILES): CN(C1CCN(CCCCOc2ccc(C#N)cc2)CC1)S(=O)(=O)c1cccc2cnccc12 [Example 8, N-Methyl N-{1-[4-(p-cyanophenoxy)butyl]4-piperidyl}-5-isoquinolinesulfonamide dihydrochloride]

IC50 (rat aortas; 80 mM KCl, 37 mM NaCl): 1.3 µM
Structure (SMILES): CN(C1CCN(CCCCSc2ccc(F)cc2)CC1)S(=O)(=O)c1cccc2cnccc12 [Example 12, N-Methyl-N-{1-[4-(p-fluorophenylthio)butyl]-4-piperidyl}-5-isoquinolinesulfonamide dihydrochloride]
inhibition at 1 µM (rabbit aortas): 19%

IC50 (rat aortas; 80 mM KCl, 37 mM NaCl): 2.9 µM
Structure (SMILES): O=S(=O)(NC1CCN(CCCCOc2ccc(F)cc2)CC1)c1cccc2cnccc12 [Example 13, N-{1-[4-(p-fluorophenoxy)butyl]4-piperidyl)}-5-isoquinolinesulfonamide dihydrochloride]
inhibition at 1 µM (rabbit aortas): 42%

IC50 (rat aortas; 80 mM KCl, 37 mM NaCl): 3.5 µM
Structure (SMILES): O=S(=O)(NCC1CCN(CCCOc2ccc(F)cc2)CC1)c1cccc2cnccc12 [Example 15, N-{[1-[3-(p-Fluorophenoxy)propyl]-4-piperidyl]methyl}-5-isoquinolinesulfonamide]
inhibition at 1 µM (rabbit aortas): 59%

IC50 (rat aortas; 80 mM KCl, 37 mM NaCl): 2.8 µM
Structure (SMILES): CN(CC1CCN(CCCOc2ccccc2)CC1)S(=O)(=O)c1cccc2cnccc12 [Example 19, N-Methyl-N-{[1-[3-(phenoxy)propyl]-4-piperidyl]methyl}-5-isoquinolinesufonamide]
inhibition at 1 µM (rabbit aortas): 67%
inhibition at 0.1 µM (rabbit aortas): 31%

IC50 (rat aortas; 80 mM KCl, 37 mM NaCl): 1.9 µM
Structure (SMILES): CN(CC1CCN(CCCCOc2ccc(F)cc2)C1)S(=O)(=O)c1cccc2cnccc12 (stereo not shown) [Example 21, N-Methyl-N-{[1-[4-(p-fluorophenoxy)butyl]-3-pyrrolidinyl]methyl}-5-isoquinolinesulfonamide dihydrochloride]
inhibition at 1 µM (rabbit aortas): 73%
inhibition at 0.1 µM (rabbit aortas): 17%

IC50 (rat aortas; 80 mM KCl, 37 mM NaCl): 3.6 µM
Structure (SMILES): CN(CC1CCN(CCCOc2ccc(F)cc2)C1)S(=O)(=O)c1cccc2cnccc12 (stereo not shown) [Example 22, N-Methyl-N-{[1-[3-(p-fluorophenoxy)propyl]-3-pyrrolidinyl]methyl}-5-isoquinolinesulfonamide dihydrochloride]
inhibition at 1 µM (rabbit aortas): 82%
inhibition at 0.1 µM (rabbit aortas): 43%

IC50 (rat aortas; 80 mM KCl, 37 mM NaCl): 4.5 µM
Structure (SMILES): O=S(=O)(NCC1CCN(CCCNc2ccc(F)cc2)CC1)c1cccc2cnccc12 [Example 24, N-{[1-[3-(p-fluorophenylamino)propyl]-4-piperidyl]methyl}-5-isoquinolinesulfonamide fumarate]
inhibition at 1 µM (rabbit aortas): 67%
inhibition at 0.1 µM (rabbit aortas): 38%

Structure (SMILES): CN(CC1CCN(CCCNc2ccc(F)cc2)CC1)S(=O)(=O)c1cccc2cnccc12 [Example 25, N-Methyl-N-{1-[3-(p-fluorophenylamino)propyl]-4-piperidyl]methyl}-5-isoquinolinesulfonamide fumarate]
inhibition at 1 µM (rabbit aortas): 77%
inhibition at 0.1 µM (rabbit aortas): 22%

IC50 (rat aortas; 80 mM KCl, 37 mM NaCl): 5.3 µM
Structure (SMILES): CCN(C1CCN(CCCCOc2ccc(F)cc2)CC1)S(=O)(=O)c1cccc2cnccc12 [Example 26, N-Ethyl-N-{1-[4-(p-fluorophenoxy)butyl]-4-piperidyl}-5-isoquinolinesulfonamide dihydrochloride]
inhibition at 1 µM (rabbit aortas): 26%
